Data reported in patent publication US9643951B2, “Compound having somatostatin receptor agonistic activity and pharmaceutical use thereof” (ONO PHARMACEUTICAL CO., LTD., priority 2013, dated 2017).
Values belong to the molecule of their own block, whether it stands above or below them.

Experiments:
[1] = molecular target: somatostatin receptor subtype 1 (SSTR1) (Homo sapiens, UniProt P30872); conditions: reported; cited from earlier work
[2] = molecular target: somatostatin receptor subtype 2 (SSTR2) (Homo sapiens, UniProt P30874); conditions: reported; cited from earlier work
somatostatin receptor subtype 2 (SSTR2), sequence (P30874 whole entry, species assumed): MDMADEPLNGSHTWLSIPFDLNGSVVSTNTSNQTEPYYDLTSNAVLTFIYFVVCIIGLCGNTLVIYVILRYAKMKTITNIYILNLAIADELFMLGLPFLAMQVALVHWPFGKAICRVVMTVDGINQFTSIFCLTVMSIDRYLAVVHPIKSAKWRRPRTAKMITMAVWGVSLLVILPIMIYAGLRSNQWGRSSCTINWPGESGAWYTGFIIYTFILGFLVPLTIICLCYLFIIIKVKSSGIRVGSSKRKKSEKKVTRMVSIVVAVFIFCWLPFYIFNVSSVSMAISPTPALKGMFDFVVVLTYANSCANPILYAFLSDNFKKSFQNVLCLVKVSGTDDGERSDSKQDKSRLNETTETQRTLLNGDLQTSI

[3] = molecular target: somatostatin receptor subtype 4 (SSTR4) (Homo sapiens, UniProt P31391); conditions: reported; cited from earlier work
somatostatin receptor subtype 4 (SSTR4), sequence (P31391 whole entry, species assumed): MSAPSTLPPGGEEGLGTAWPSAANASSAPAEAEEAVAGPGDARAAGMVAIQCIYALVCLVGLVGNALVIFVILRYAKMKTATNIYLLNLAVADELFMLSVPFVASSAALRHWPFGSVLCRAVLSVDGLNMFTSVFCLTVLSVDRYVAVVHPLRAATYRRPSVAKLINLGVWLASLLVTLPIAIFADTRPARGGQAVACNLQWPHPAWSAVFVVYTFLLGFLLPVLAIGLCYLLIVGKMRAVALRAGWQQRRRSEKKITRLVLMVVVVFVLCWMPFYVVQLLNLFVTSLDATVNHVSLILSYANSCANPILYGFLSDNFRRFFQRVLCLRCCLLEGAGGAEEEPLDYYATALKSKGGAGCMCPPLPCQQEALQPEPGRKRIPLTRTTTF

[4] = molecular target: somatostatin receptor subtype 3 (SSTR3) (Homo sapiens, UniProt P32745); conditions: reported; cited from earlier work
somatostatin receptor subtype 3 (SSTR3), sequence (P32745 whole entry, species assumed): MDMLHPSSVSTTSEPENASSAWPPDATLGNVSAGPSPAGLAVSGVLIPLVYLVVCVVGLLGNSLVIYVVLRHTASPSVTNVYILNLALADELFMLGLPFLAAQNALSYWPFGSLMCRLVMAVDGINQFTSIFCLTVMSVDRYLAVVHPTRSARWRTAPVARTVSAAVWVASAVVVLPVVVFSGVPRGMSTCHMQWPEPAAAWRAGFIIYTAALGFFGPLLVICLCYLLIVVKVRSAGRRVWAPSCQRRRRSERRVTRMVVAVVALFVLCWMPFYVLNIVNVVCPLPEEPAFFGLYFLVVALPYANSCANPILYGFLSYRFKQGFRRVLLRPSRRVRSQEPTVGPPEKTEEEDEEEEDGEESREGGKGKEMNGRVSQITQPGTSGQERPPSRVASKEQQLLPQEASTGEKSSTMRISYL

[5] = tested on: growth hormone (GH) secretion; assay: Evaluation of suppression of growth hormone (GH) secretion using rats (GHRH-induced); assay type: in vivo
Method: Evaluation of Suppression of Growth Hormone (GH) Secretion Using Rats
[Procedure (A): Administration of a Test Compound 30 Minutes Beforehand]
A medium (distilled water (Otsuka distilled water, Otsuka Pharmaceutical Factory, […]) IGS rats (Charles River Laboratories Japan, Inc.)) and after 27 minutes, the animals were administered with 50 mg/kg of pentobarbital sodium (Somnopentyl, Kyoritsu Seiyaku Corporation) via the tail vein for anaesthesia. Three minutes after administration of pentobarbital sodium, the rats were administered with 0.01 mg/kg of growth hormone-releasing hormone (GHRH, Bachem) via the tail vein to induce GH secretion. In order to measure the blood GH concentration, 0.2 mL of blood was collected through the jugular vein at 5 minutes after administration of GHRH. The collected blood was centrifuged at 4° C., 13,000×g for 5 minutes to obtain plasma. The blood GH concentration was measured by using Rat/Mouse Growth Hormone ELISA (Millipore) following the instruction of the kit. The percentage (%) of suppression of GH secretion was determined by using the obtained blood GH concentration and the equation {[suppression (%) of GH secretion]=([blood GH concentration of the group administered with the medium]−[blood GH concentration of the group administered with a test compound])/[blood GH concentration of the group administered with the medium]×100}. In the equation, the group administered with the medium represents the group of animals administered with the medium and the group administered with a test compound represents the group of animals administered with a test compound dissolved in the medium.
[Procedure (B): Administration of a Test Compound 8 Hours Beforehand]
A medium (distilled water (Otsuka distilled water, Otsuka Pharmaceutical Factory, […]) IGS rats (Charles River Laboratories Japan, Inc.)) and after 7 hours and 57 minutes, the animals were administered with 50 mg/kg of pentobarbital sodium (Somnopentyl, Kyoritsu Seiyaku Corporation) via the tail vein for anaesthesia. Three minutes after administration of pentobarbital sodium, the rats were administered with 0.01 mg/kg of growth hormone-releasing hormone (GHRH, Bachem) via the tail vein to induce GH secretion. The rest of the procedure is the same as in [Procedure (A)] described above.

gastric acid secretion = assay: Evaluation of suppression of gastric acid secretion using rats (pyloric ligation); assay type: in vivo; conditions: continuous intravenous administration at 1 mcg (microgram)/kg/h
[6] = Evaluation of cytotoxicity using cultured human hepatocytes (intracellular ATP); assay type: cell-based; conditions: read-out: IC50 of cytotoxicity (concentration at which 50% of the luminescence is suppressed)
Method: Evaluation of Cytotoxicity Using Cultured Human Hepatocytes
Frozen adhesive human hepatocytes were thawed, suspended in a hepatocellular medium (HCM) purchased from Lonza and inoculated to a 96-well plate coated with collagen. The culture medium of the hepatocytes cultured overnight in an incubator (5% carbon dioxide, 95% air, 37° C.) was exchanged to the medium containing a test compound at a concentration of 0, 12.5, 25, 50, 100, 200 or 400 (×10^−6 mol/L) and the cells were further cultured for 24 hours. Cytotoxicity was evaluated by measuring the intracellular ATP concentration. Specifically, using the Promega Celltiter-Glo luminescent assay kit available from Promega, cells were lysed in the assay buffer included in the kit and the concentration of ATP released from the cells was measured according to the luminescence resulting from luciferin-luciferase enzyme activity. The luminescence was measured on the SpectraMax plate reader from Molecular Devices. The extent of cytotoxicity of a test compound is represented by the concentration (IC50) of the compound at which 50% of the luminescence is suppressed.

human SSTR2 = molecular target: T1, human SSTR2 (Homo sapiens, UniProt P30874); assay: Evaluation of SSTR2 agonistic activity using cells expressing human SSTR2 (suppression of forskolin-stimulated cAMP production, SSTR2-CHO-K1); assay type: cell-based
T1 construct: Myc; expressed in transfected cells
T1 sequence (P30874 whole entry): as the sequence (P30874 whole entry, species assumed) above
Method: Evaluation of SSTR2 Agonistic Activity Using Cells Expressing Human SSTR2
(1) Isolation of Human SSTR2 Gene
Human brain cDNA was purchased from Ambion (catalogue No.: 7962; Lot No.: 040200121). PCR primers, hSSTR2_F1_XhoI: 5′-[…]-3′ (SEQ ID NO: 1) and hSSTR2_R1_EcoRI: 5′-[…]-3′ (SEQ ID NO: 2) were designed on the basis of the sequence GenBank NM_001050.
PCR reaction (95° C. for 2 min.→[98° C. for 10 sec., 60° C. for 30 sec. and 68° C. for 90 sec.]×30 cycles) was carried out using the human brain cDNA as a template and using KOD-plus-(TOYOBO Co., Ltd.). The amplified PCR product was subjected to 1% agarose gel electrophoresis, purified using QIAquick Gel Extraction Kit (QIAGEN) and digested with restriction enzymes XhoI and EcoRI. The digested fragments were ligated to an expression vector (pIRESneo-Myc) using the DNA Ligation Kit Ver. 2 (Takara) and used for transformation of E. coli DH5a. The plasmid pIRESneo-Myc/hSSTR2 was prepared and the DNA sequence thereof was confirmed.
(2) Culture of CHO-K1 Cells
CHO-K1 (−) was cultured in Ham's F-12 medium (containing foetal bovine serum (10%), penicillin (100 U/mL) and streptomycin (0.1 mg/mL)). The transduced cells were cultured in the same medium supplemented with Geneticin (1 mg/mL).
(3) Transduction of CHO-K1 Cells
CHO-K1(−) cells were transduced with the plasmid pIRESneo-Myc/hSSTR2 using Lipofectamine 2000 (Invitrogen). After 48 hours, selection was carried out by replacing the medium with the one containing 1 mg/mL of Geneticin to establish a stable overexpressing cell line (SSTR2-CHO-K1).
(4) Evaluation of SSTR2 Agonistic Activity
The human SSTR2 agonistic activity of a test compound was evaluated according to the following procedures by using a suppression activity of intracellular cyclic AMP (cAMP) production by forskolin stimulation as an index. SSTR2-CHO-K1 cells suspended in Ham's F-12 medium (containing foetal bovine serum (10%), penicillin (100 U/mL) and streptomycin (0.1 mg/mL)) supplemented with 0.25 mg/mL of Geneticin were inoculated into a 96-well plate at a density of 4.0×10^4 cells/0.1 mL per well. On the next day, the medium was removed and washed twice with 0.1 mL of wash buffer [0.1% bovine serum albumin (BSA), 20 mmol/L 4-(2-hydroxyethyl)-1-piperazineethane sulphonic acid (HEPES)-containing Hank's balanced salt solution (HBSS)]. An assay buffer [[…] 3-isobutyl-1-methylxanthine (IBMX), 0.1% BSA, 20 mmol/L HEPES-containing HBSS] was added to the wells at 0.06 mL per well and the plate was incubated for 15 minutes under the conditions of 5% carbon dioxide and 37° C. Thereafter, an assay buffer containing a test compound at a concentration twice as high as the final concentration and 0.02 mmol/L of forskolin was added to wells at 0.06 mL per well and the plate was incubated for 30 minutes under the conditions of 5% carbon dioxide and 37° C. Thereafter, the Assay/Lysis buffer included in the cAMP-Screen® kit (available from Applied Biosystems) was added to wells at 0.12 mL per well and the plate was incubated for 30 minutes under the conditions of 5% carbon dioxide and 37° C. The concentration of cAMP in samples were measured by ELISA according to the instruction of the kit.

[7] = Human hepatic microsome stability test; assay type: in vitro ADME; conditions: human hepatic microsomes 1 mg/mL; 60 minutes; test compound 0.001 mmol/L; 37° C.
Method: Human Hepatic Microsome Stability Test
To a reaction vessel heated to 37° C. in a water bath, 0.392 mL of phosphate buffer (0.1 mol/L, pH 7.4) containing human hepatic microsomes (1 mg/mL, Xenotech) and NADPH-Co-factor (NADP+1.3 mmol/L, BD-Bioscience) was added and pre-incubated for 5 minutes. A 50% acetonitrile solution (0.008 mL) containing 0.05 mmol/L of a test compound was added thereto to initiate the enzyme reaction (final concentration of the test compound: 0.001 mmol/L). Immediately after initiation of the reaction and at 60 minutes thereafter, 0.050 mL of the reaction solution was respectively collected, which was immediately added to an acetonitrile solution (0.2 mL) containing an internal standard (45 nmol/L, 1-[3-(3,5-dimethylphenyl)-4-quinolinyl]-4-piperidineamine) to terminate the enzyme reaction.
The residual rate (%), which is indicative of stability of the test compound, was calculated using the ratio of peak areas between the test compound and the internal substance determined by LC/MS/MS (TSQ Quantum Discovery MAX, Thermo) analysis of the sample thus prepared by the above procedures followed by filtration, and the equation: {[residual rate (%)=[peak area of a test compound in a sample at 60 minutes after initiation of the reaction/peak area of the internal standard]/[peak area of the test compound in the sample immediately after initiation of the reaction/peak area of the internal standard]×100}.

somatostatin receptor subtype 1 (SSTR1), sequence (P30872 whole entry, species assumed): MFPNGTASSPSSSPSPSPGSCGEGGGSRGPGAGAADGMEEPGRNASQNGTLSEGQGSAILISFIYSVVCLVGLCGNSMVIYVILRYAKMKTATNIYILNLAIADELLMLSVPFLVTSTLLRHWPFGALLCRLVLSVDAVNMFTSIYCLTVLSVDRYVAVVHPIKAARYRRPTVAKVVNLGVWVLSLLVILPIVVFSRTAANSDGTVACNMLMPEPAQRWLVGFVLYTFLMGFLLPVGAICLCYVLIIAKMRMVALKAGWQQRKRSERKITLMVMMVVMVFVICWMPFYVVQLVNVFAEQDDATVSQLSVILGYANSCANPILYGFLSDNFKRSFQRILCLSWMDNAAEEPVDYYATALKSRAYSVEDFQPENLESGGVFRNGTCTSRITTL

SMILES: CC(C)[C@@H]1NC(=O)[C@H](CCCCN)NC(=O)[C@@H](Cc2c[nH]c3ccccc23)NC(=O)[C@H](Cc2ccc(O)cc2)NC(=O)[C@@H](NC(=O)[C@H](N)Cc2ccc3ccccc3c2)CSSC[C@@H](C(=O)N[C@H](C(N)=O)[C@@H](C)O)NC1=O [lanreotide acetate]
- binding to SSTR1 [1]: do not bind
- binding affinity to SSTR2 [2]: high affinity
- binding to SSTR4 [3]: do not bind
- binding affinity to SSTR3 [4]: moderate affinity

SMILES: C[C@@H](O)[C@@H]1NC(=O)[C@H](CCCCN)NC(=O)[C@@H](Cc2c[nH]c3ccccc23)NC(=O)[C@H](Cc2ccccc2)NC(=O)[C@@H](NC(=O)[C@H](N)Cc2ccccc2)CSSC[C@@H](C(=O)N[C@H](CO)[C@@H](C)O)NC1=O [octreotide, reference compound]
- suppression of GH secretion ([5]; Procedure (A): 30 minutes beforehand, 0.003 mg/kg by subcutaneous administration): 98%
- percentage of suppression of gastric acid secretion (gastric acid secretion): 39%

- EC50 (human SSTR2): 0.021 nM
- residual rate [7]: 96.4%
SMILES: NC1CCN(c2c(-c3ccc(OC(F)F)cc3)cncc2-c2cc(Cl)cc(Cl)c2)CC1 [Example 2(3), 1-{3-(3,5-dichlorophenyl)-5-[4-(difluoromethoxy)phenyl]-4-pyridinyl}-4-piperidineamine]
- IC50 at 24 h [6]: 9 µM
- inhibition in vivo at 1 mg/kg ([5]; Rattus norvegicus, Procedure (B): oral administration 8 hours beforehand, 1 mg/kg, read-out: percentage of suppression of GH secretion): 88%
